Patent publication US4592997A, “Process for the detection of the presence of an allergy and for the specific detection of the allergen responsible for the allergy” (Boehringer Mannheim GmbH, priority 1982, dated 1986)
Peptide text beside a SMILES is read from it. * marks the point of attachment. pNA = O=[N+]([O-])c1ccc(N*)cc1; Tos = Cc1ccc(S(=O)(=O)*)cc1; Cbz = O=C(OCc1ccccc1)*

Experiments:
[1] = system: protease liberated from leukocytes after anti-IgE stimulation; assay: Splitting of chromogenic substrates by the protease liberated from leukocytes; assay type: biochemical, human
Experimental: (§1) Two 0.9 ml. amounts of cell suspension were each transferred to a polyethylene test tube, mixed with 0.4 ml. tris buffer mixture (pH 7.6) and brought to 37° C. in a water-bath. To one sample, there was added 0.1 ml. of anti-IgE solution (Behring-Werke, No. OTNP 04/05, diluted 1:500 with tris buffer mixture; pH 7.6) and to the other sample (the control) there was pipetted 0.1 ml. of tris buffer mixture (pH 7.6) and to both samples there was added 0.1 ml. calcium chloride solution (4 mmol/liter in isotonic sodium chloride solution; pH 7.6). The two samples were kept for 60 minutes at 37° C., then each was mixed with 0.5 ml. ice-cold EDTA solution (0.1 mol/liter in isotonic sodium chloride solution; pH 7.6) and centrifuged for 10 minutes at 4° C., and at 30000 g, the supernatant being pipetted off immediately after stopping the centrifuge.
To 0.5 ml of the supernatant was added 0.5 ml. of 1.5 mmol/l. Chromozym TH solution (1 bottle BM 199664 dissolved in 5 ml. water). The extinction difference between the two samples was determined after 1, 2 and 3 hours at 405 nm.
From two 0.9 ml. amounts of leukocyte suspension obtained according to Example 1.1 from the blood of a healthy donor, there was obtained protease according to Example 1.2, after anti-IgE stimulation, as centrifuge supernatant. The testing of the protease took place as in Example 1.3 but in the case of one sample, instead of Chromozym TH, there was added an equimolar amount of CBO-Gly-Pro-Arg-pNA. Within the first 3 hours equal ΔE/h values (ΔE/h=0.067) were measured.
The activity of two samples treated in parallel according to Example 1 was determined with Chromozym TH and with an equimolar amount of Chromozym PL. With Chromozym PL, there was found ΔE/h=0.052 and with Chromozym TH ΔE/h=0.048.
The protease activity of two samples treated in parallel according to Example 1 was determined with Chromozym TH and with an equimolar amount of S 2238. With S 2238 there was determined ΔE/h=0.037 and with Chromozym TH ΔE/h=0.048.

leukocytes = assay: Protease liberation from leukocytes by anti-IgE or allergen, measured with Chromozym TH (Example 1 method); assay type: cell-based, human; details: for allergy towards the substance shown with the process (in words): general statement
Experimental: 60 ml. venous blood of a healthy donor were carefully mixed with 30 ml. of a dextran mixture (dextran with average M.W. of 75000 2%; D-glucose 2%, EDTA 20 mmol/liter; gelatine 0.07%) in a polyethylene beaker and transferred to a siliconised separating funnel. After leaving to stand for 60 to 90 minutes at room temperature, the supernatant containing the leukocytes (about 50 ml.) was separated off and mixed with 50 ml. tris buffer mixture of pH 7.6 (tris 22 mmol/liter; sodium chloride 0.12 mol/liter; potassium chloride 5 mmol/liter; gelatine 0.05%; EDTA 1 mmol/liter; D-glucose 0.1%) and centrifuged for 15 minutes at 800 g. After decanting, the cells were washed twice in that, in each case, they were again suspended in 50 ml. of the same buffer mixture (pH 7.6) and, in each case, centrifuged for 15 minutes at 800 g. The cells were then suspended in 10 ml. of the same buffer mixture.
as §1
To 0.5 ml of the supernatant was added 0.5 ml. of 1.5 mmol/l. […] The extinction difference between the two samples was determined after 1, 2 and 3 hours at 405 nm.

[2] = system: new protease from leukocytes; assay: Specific inhibitability of the new protease from leukocytes; assay type: biochemical, human; details: new leukocyte protease
[3] = system: kallikrein-like protease from leukocytes; details: cited from earlier work
[4] = Example 3, healthy donor, after anti-IgE stimulation, first 3 hours, equimolar substrate
[5] = Example 4, samples treated according to Example 1, equimolar substrate
[6] = Example 5, samples treated according to Example 1, equimolar substrate

Molecule: N=C(N)NCCC[C@H](NC(=O)[C@@H]1CCCN1C(=O)CNC(=O)OCc1ccccc1)C(=O)Nc1ccc([N+](=O)[O-])cc1 [CBO-Gly-Pro-Arg-pNA, reference compound] (Cbz-Gly-Pro-Arg-pNA)
- ΔE/h with the substrate [1, 4]: 0.067 h⁻¹

Molecule: Cc1ccc(S(=O)(=O)NCC(=O)N2CCC[C@H]2C(=O)N[C@@H](CCCCN)C(=O)Nc2ccc([N+](=O)[O-])cc2)cc1 [Chromozym PL, Tos-Gly-Pro-Lys-pNA] (Tos-Gly-Pro-Lys-pNA)
- ΔE/h with the substrate [1, 5]: 0.052 h⁻¹

Molecule: CC(=O)O.Cc1ccc(S(=O)(=O)NCC(=O)N2CCC[C@H]2C(=O)N[C@@H](CCCNC(=N)N)C(=O)Nc2ccc([N+](=O)[O-])cc2)cc1 [Chromozym TH, tosyl-glycyl-prolyl-arginine-p-nitroanilide acetate] (Tos-Gly-Pro-Arg-pNA)
- ΔE/h with the substrate [1, 4]: 0.067 h⁻¹
- ΔE/h with the substrate [1, 5]: 0.048 h⁻¹
- ΔE/h with the substrate [1, 6]: 0.048 h⁻¹

Molecule: NC(N)=NCCC[C@H](NC(=O)[C@@H]1CCCCN1C(=O)[C@H](N)Cc1ccccc1)C(=O)Nc1ccc([N+](=O)[O-])cc1 [S 2238, Phe-Pip-Arg-pNA]
- ΔE/h with the substrate [1, 6]: 0.037 h⁻¹

Molecule: CC1(C)S[C@@H]2[C@H](NC(=O)[C@H](N)c3ccccc3)C(=O)N2[C@H]1C(=O)O [ampicillin]
- additional extinction change ΔE/h versus unstimulated comparative sample (leukocytes; donor allergic to ampicillin): 0.558 h⁻¹
- measurement value ΔE/h of the stimulated sample (leukocytes; donor allergic to ampicillin, 0.9 ml. leukocyte suspension): 0.893 h⁻¹
- allergy towards the substance shown with the process (in words) (leukocytes): demonstrated

Molecule: aprotinin [reference compound]
- specific inhibitability by aprotonin I50 [2]: 1 mg/mL
- specific inhibitability by aprotinin I50 ([3]; known kallikrein-like protease): about 50 μg./ml.

Molecule: nickel
- allergy towards the substance shown with the process (in words) (leukocytes): demonstrated

B1: soya bean trypsin inhibitor (protein, UniProt P01070 25-205, looked up)
Trypsin inhibitor A: DFVLDNEGNPLENGGTYYILSDITAFGGIRAAPTGNERCPLTVVQSRNELDKGIGTIISSPYRIRFIAEGHPLSLKFDSFAVIMLCVGIPTEWSVVEDLPEGPAVKIGENKDAMDGWFRLERVSDDEFNNYKLVFCPQQAEDDKCGDIGISIDHDDGTRRLVVSKNKPLVVQFQKLDKESL
- inhibition by STI ([3]; 0.1 mole/l. STI): 11%
